Test [1] addresses T1, serotonin S2 (5-HT2) receptors (Rattus norvegicus, UniProt P14842).
T1 construct: cortical tissue is dissected and weighed; from tissue; host or cells: cerebral cortex membranes of male Wistar (Mol:Wist) rats
In words: inhibition of 3H-ketanserin binding to serotonin S2 (5-HT2) receptors in rat cortex in vitro. The settings on record: 3H-ketanserin 0.5 nM, rat cortex membranes, read-out: Binding IC50, 3H Ket. The protocol:
Method in Hyttel, Pharmacology & Toxicology, 61, 126-129. 1987.
Male Wistar (Mol:Wist) rats (125-250 g) are sacrifices and cortical tissue is dissected and weighed. The tissue is homogenized (Ultra Turrax, 10 sec.) in 10 ml of ice-cold 50 mM tris buffer pH 7.7 (at 25° C.). The centrifuge glassware used in this step has been rinsed by sonication for 10 min. in ethanol. The homogenate is centrifuged twice at 20,000 g for 10 min. at 4° C. with rehomogenization of the pellet in 10 ml ice-cold buffer. The final pellet is homogenized in 500 vol (w/v) ice-cold buffer.
Incubation tubes kept on ice in triplicate receive 100 μl of drug solution in water (or water for total binding) and 2000 μl of tissue suspension (final tissue content corresponds to 4 mg original tissue). […] After incubation for 30 min. the samples are filtered under vacuum (0-50 mBar) through Whatman GF/F filters (25 mm). The tubes are rinsed with 5 ml ice-cold buffer which are then poured on the filters. Thereafter, the filters are washed with 2×5 ml of buffer. The filters are placed in counting vials and 4 ml of appropriate scintillation fluid (e.g., Picofluor™15) are added. After shaking for 1 h and storage 2 hrs in the dark the content of radioactivity is determined by liquid scintillation counting. Specific binding is obtained by subtracting the nonspecific binding in the presence of 1 μM mianserin. For determination of the inhibition of binding five concentrations of drugs covering 3 decades are used.
The IC50 value is determined as the concentration at which the binding is 50% of the total binding in control samples minus the nonspecific binding in the presence of 1 μM mianserin.

In test [2] the target is α1 adrenoceptors. In words: inhibition of 3H-prazosin binding to α1 adrenoceptors in rat brain in vitro. The settings on record: 3H-prazosin 0.25 nM, rat brain membranes, read-out: Binding IC50, 3H Praz. On the procedure: INHIBITION OF ^3 H-PRAZOSIN BINDING TO α1 ADRENOCEPTORS IN RAT BRAIN IN VITRO
Method and results in Hyttel and Larsen, J. Neurochem, 44, 1615-1622, 1985; Skarsfeldt and Hyttel, Eur. J. Pharmacol. 125, 323-340, 1986.
Male Wistar (Mol:Wist) rats (125-200 g) are sacrificed and brain tissue is dissected and weighed. The tissue is homogenized (Ultra Turrax, 10 sec.) in 10 ml of ice-cold […] Tris buffer pH 7.7 (at 25° C.). The homogenate is centrifuged twice at 20,000 g for 10 min. at 4° C. with rehomogenization of the pellet in 10 ml ice-cold buffer. The final pellet is homogenized in 400 vol (w/v) ice-cold buffer.
Incubation tubes kept on ice in triplicate receive 100 μl of drug solution in water (or water for total binding) and 4000 μl of tissue suspension (final tissue content corresponds to 10 mg original tissue). The binding experiment is initiated by addition of 100 μl of ^3 H-Prazosin (final concentration 0.25 nM) and by placing the tubes in a 25° C. water bath. After incubation for 20 min. the samples are filtered under vacuum (0-50 mBar) through Whatman GF/F filters (25 mm). The tubes are rinsed with 5 ml ice-cold buffer which then are poured on the filters. Thereafter, the filters are washed with 5 ml of buffer. The filters are placed in counting vials and 4 ml of appropriate scintillation fluid (e.g. Picofluor™15) are added. After shaking for 1 h and storage 2 hrs in the dark the content of radioactivity is determined by liquid scintillation counting. Specific binding is obtained by subtracting the nonspecific binding in the presence of 1 μM of Prazosin.
(§1) For determination of the inhibition of binding five concentrations of drugs covering 3 decades are used.
The measured cpm are plotted against drug concentration on semilogarithmic paper and the best fitting S-shaped curve is drawn. The IC50 value is determined as the concentration at which the binding is 50% of the total binding in control samples minus the nonspecific binding in the presence of 1 μM of Prazosin. ^3 H-Prazosin=[furoyl-5-^3 H]-Prazosin from New England Nuclear, specific activity approximately 20 Ci/mmol.

The target of test [3] is T2, dopamine D-2 receptors (Rattus norvegicus, UniProt P61169).
T2 construct: striatal tissue is dissected and weighed; from tissue; host or cells: corpus striatum membranes of male Wistar rats
In words: inhibition of 3H-spiperone binding to dopamine D-2 receptors in rat corpus striatum in vitro. On the procedure: INHIBITION OF ^3 H-SPIPERONE BINDING TO DOPAMINE D-2 RECEPTORS IN RAT CORPUS STRIATUM IN VITRO
By this method the inhibition by drugs of the binding of ^3 H-spiperone (0.5 nM) to dopamine D-2 receptors in membranes from rat corpus striatum is determined in vitro. Method and results in Hyttel and Larsen, J. Neurochem, 44, 1615-1622, 1985).
Male Wistar (Mol:Wistar) rats (125-250 g) are sacrificed and striatal tissue is dissected and weighed. The tissue is homogenized (Ultra Turrax, 10 sec.) in 10 ml of ice-cold 50 mM K-phosphate buffer pH 7.4 (at 25° C.). The homogenate is centrifuged twice at 20,000 g for 10 min. at 4° C. with rehomogenization of the pellet in 10 ml ice-cold buffer. The final pellet is homogenized in 1300 vol (w/v) ice-cold buffer.
Incubation tubes kept on ice in triplicate receive 100 μl of drug solution in water (or water for total binding) and 4000 μl of tissue suspension (final tissue content corresponds to 3.08 mg original tissue). The binding experimental is initiated by addition of 100 μl of ^3 H-spiperone (final concentration 0.5 nM) and by placing the tubes in a 37° C. water bath. After incubation for 10 min. the samples are filtered under vacuum (0-50 mBar) through Whatman GF/F filters (25 mm). The tubes are rinsed with 5 ml ice-cold buffer which are then poured on the filters. Thereafter, the filters are washed with 2×5 ml of buffer. The filters are placed in counting vials and 4 ml of appropriate scintillation fluid (e.g. Picofluor ™15) are added. After shaking for 1 h and storage 2 hrs in the dark the content of radioactivity is determined by liquid scintillation counting. Specific binding is obtained by subtracting the nonspecific binding in the presence of 10 μM of 6,7-ADTN.
as §1
England, specific activity 15-25 Ci/mmol.

Setting [4] is: 3H-spiperone 0.5 nM, rat corpus striatum membranes, in vitro, read-out: Binding IC50, 3H Spi.

Read-outs that look alike come from different tables or passages of the source.

T1 sequence (P14842 whole entry): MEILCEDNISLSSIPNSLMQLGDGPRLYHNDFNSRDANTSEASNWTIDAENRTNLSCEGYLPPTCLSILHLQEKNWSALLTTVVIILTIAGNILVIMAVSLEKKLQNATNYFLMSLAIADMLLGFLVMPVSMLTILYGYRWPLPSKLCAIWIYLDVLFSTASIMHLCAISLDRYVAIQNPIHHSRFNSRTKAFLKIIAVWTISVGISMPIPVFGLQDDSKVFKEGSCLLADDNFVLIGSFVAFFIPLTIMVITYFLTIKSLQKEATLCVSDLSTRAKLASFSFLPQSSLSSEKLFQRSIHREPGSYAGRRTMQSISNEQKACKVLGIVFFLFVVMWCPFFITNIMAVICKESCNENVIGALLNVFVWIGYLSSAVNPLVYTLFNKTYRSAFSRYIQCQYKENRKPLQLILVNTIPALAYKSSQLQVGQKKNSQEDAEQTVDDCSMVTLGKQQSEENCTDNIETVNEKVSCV
T2 sequence (P61169 whole entry): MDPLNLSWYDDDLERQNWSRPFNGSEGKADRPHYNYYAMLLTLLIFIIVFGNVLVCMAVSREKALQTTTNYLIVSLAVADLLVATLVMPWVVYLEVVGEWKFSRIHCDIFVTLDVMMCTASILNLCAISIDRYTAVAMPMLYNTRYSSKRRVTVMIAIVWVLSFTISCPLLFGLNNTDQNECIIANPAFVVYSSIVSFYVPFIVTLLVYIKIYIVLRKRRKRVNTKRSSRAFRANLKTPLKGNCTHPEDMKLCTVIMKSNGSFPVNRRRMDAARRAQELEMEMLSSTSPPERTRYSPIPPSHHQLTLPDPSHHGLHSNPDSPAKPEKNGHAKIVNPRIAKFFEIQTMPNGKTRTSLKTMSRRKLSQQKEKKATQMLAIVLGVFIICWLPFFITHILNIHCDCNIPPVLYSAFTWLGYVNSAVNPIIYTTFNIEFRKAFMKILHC

By IC50 is commonly meant the midpoint of a concentration-inhibition curve. As to `O=C1CCCN1CCN1CCC(c2cn(-c3ccc(F)cc3)c3cc(C(F)(F)F)ccc23)CC1` [Compound 4e, 1-(4-fluorophenyl)-3-[1-[2-(2-pyrrolidinon-1-yl)ethyl]-4-piperidyl]-6-trifluoromethyl-1H-indole], the IC50 in test [1] came to 0.0028 µM; in test [2], 0.049 µM; in test [3] (setting [4]), 0.3 µM.
The corresponding values for `CC(C)N1CCN(CCN2CCC(c3cn(-c4ccc(F)cc4)c4cc(C(F)(F)F)ccc34)CC2)C1=O` [Compound 4c, 1-(4-fluorophenyl)-3-[1-[2-[3-(2-propyl)-2-imidazolidinon-1-yl]ethyl]-4-piperidyl]-6-trifluoromethyl-1H-indole] are 0.0029 µM, 0.091 µM and 0.28 µM.
The corresponding values for `Cc1c(C2CCN(CCN3CCNC3=O)CC2)c2ccccc2n1-c1ccc(F)cc1` [Compound 24c, 1-(4-fluorophenyl)-3-[1-[2-(2-imidazolidinon-1-yl)ethyl]-4-piperidyl]-2-methyl-1H-indole] are 0.00069 µM, 0.061 µM and 0.38 µM.
For `Cc1ccc2c(C3CCN(CCNC(=O)NC(C)C)CC3)cn(-c3ccc(F)cc3)c2c1` [Compound 9a, 1-(4-fluorophenyl)-3-[1-[2-[3-(2-propyl)-1-ureido]-1-ethyl]-4-piperidyl]-6-methyl-1H-indole] the same measures were 0.0018 µM, 0.076 µM and 0.3 µM.
Consider `Cc1ccc2c(C3CCN(CCN4CCN(C(C)C)C4=O)CC3)cn(-c3ccc(Cl)cc3)c2c1` [Compound 15h, 1-(4-chlorophenyl)-3-[1-[2-[3-(2-propyl)-2-imidazolidinon-1-yl]ethyl]-4-piperidyl]-6-methyl-1H-indole], for which the IC50 was found to be 0.006 µM in test [1], 0.45 µM in test [2] and 0.62 µM in test [3] (setting [4]).
For `Cc1ccc2c(C3CCN(CCN4CCN(C(C)C)C4=O)CC3)cn(-c3ccsc3)c2c1` [Compound 15c, 6-methyl-3-[1-[2-[3-(2-propyl)-2-imidazolidinon-1-yl]ethyl]-4-piperidyl]-1-(3-thie-nyl)-1H-indole] the same measures were 0.0026 µM, 0.33 µM and 1 µM.
The corresponding values for `Cc1ccc2c(C3CCN(CCN4CCN(C(C)C)C4=O)CC3)cn(-c3cccc(F)c3)c2c1` [Compound 15g, 1-(3-fluorophenyl)-3-[1-[2-[3-(2-propyl)-2-imidazolidinon-1-yl]ethyl]-4-piperidyl]-6-methyl-1H-indole] are 0.011 µM, 0.67 µM and 3.2 µM.
In the case of `CC(C)N1CCN(CCN2CC=C(c3cn(-c4ccc(F)cc4)c4cc(Cl)ccc34)CC2)C1=O` [Compound 2a, 6-chloro-1-(4-fluorophenyl)-3-[1-[2-[3-(2-propyl)-2-imidazolidinon-1-yl]ethyl]-1,2,3,6-tetrahydropyridin-4-yl]-1H-indole], the IC50 in test [1] is 0.0035 µM; in test [2] it was 0.055 µM; in test [3] it was 0.066 µM.
For the compound `Cc1ccc2c(C3CCN(CCN4CCN(C(C)C)C4=O)CC3)cn(-c3ccccc3F)c2c1` [Compound 15f, 1-(2-fluorophenyl)-3-[1-[2-[3-(2-propyl)-2-imidazolidinon-1-yl]ethyl]-4-piperidyl]-6-methyl-1H-indole], the half-maximal inhibitory concentration (IC50) in test [1] stood at 0.0025 µM; in test [2] it was 0.37 µM; in test [3] (setting [4]), 0.73 µM.
For `CC(C)N1CCN(CCN2CCC(c3cn(-c4ccc(F)cc4)c4cc(Cl)ccc34)CC2)C1=S` [Compound 13a, 6-chloro-1-(4-fluorophenyl)-3-[1-[2-[3-(2-propyl)-2-imidazolidinthion-1-yl]ethyl]-4-piperidyl]-1H-indole] the same measures were 0.0044 µM, 0.11 µM and 0.27 µM.

The values above are taken from patent publication US5216001A, “Indole derivatives” (H. Lunbeck A/S, priority 1990, dated 1993).
